Measurements taken from patent US6028197A, “Dibenzo[a,g]quinolizinium derivatives and the salts thereof” (Hanwha Corporation, priority 1998, dated 2000).
Where two headings read alike, the source gives them in different places.

Biological target: T1, sterol 14-reductase (Rattus norvegicus, UniProt A0ACM8Q6X4)
T1 construct: microsome which was used as an enzyme source of sterol 14-reductase; from tissue; host or cells: liver microsomes of male Sprague-Dawley rats fed lovastatin and cholestyramine
T1 sequence (A0ACM8Q6X4 1-418): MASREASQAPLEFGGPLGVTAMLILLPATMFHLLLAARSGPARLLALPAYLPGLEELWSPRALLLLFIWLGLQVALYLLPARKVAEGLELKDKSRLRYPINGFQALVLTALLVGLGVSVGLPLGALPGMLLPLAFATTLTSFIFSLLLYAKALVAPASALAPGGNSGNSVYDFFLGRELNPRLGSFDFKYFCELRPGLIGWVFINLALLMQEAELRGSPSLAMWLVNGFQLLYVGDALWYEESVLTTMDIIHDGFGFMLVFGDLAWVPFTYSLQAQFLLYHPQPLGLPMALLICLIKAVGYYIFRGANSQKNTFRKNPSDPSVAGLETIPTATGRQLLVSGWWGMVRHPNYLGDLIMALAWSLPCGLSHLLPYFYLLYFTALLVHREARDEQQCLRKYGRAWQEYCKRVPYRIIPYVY
Assay: Inhibition of sterol 14-reductase in rat liver microsomes
Type: biochemical
Conditions: read-out: Enzyme Activity (relative in vitro activity for sterol 14-reductase, IC50 class)

Compound	IC50	IC50 (microsomes)
CCc1c2[n+](cc3c(OCc4ccc(C)c([N+](=O)[O-])c4)c(OC)ccc13)CCc1cc(OC)c(OC)cc1-2 [Compound No. 6, 5,6-dihydro-2,3-dimethoxybenzo[a]-13-ethyl-10-methoxy-9-(4-methyl-3-nitro)benzyloxybenzo[g]quinolizinium chloride]	–	< 1 µM
C=Cc1ccc(COc2c(OC)ccc3c(CC)c4[n+](cc23)CCc2cc(OC)c(OC)cc2-4)cc1 [Compound No. 8, 5,6-dihydro-2,3-dimethoxybenzo[a]-13-ethyl-10-methoxy-9-(4-vinyl)benzyloxybenzo[g]quinolizinium chloride]	> 100 µM	–
CCc1c2[n+](cc3c(OCc4cccc(OC)c4)c(OC)ccc13)CCc1cc(OC)c(OC)cc1-2 [Compound No. 12, 5,6-dihydro-2,3-dimethoxybenzo[a]-13-ethyl-10-methoxy-9-(3-methoxy)benzyloxybenzo[g]quinolizinium chloride]	> 100 µM	–
CCc1c2[n+](cc3c(OCc4ccc(OCc5ccccc5)cc4)c(OC)ccc13)CCc1cc(OC)c(OC)cc1-2 [Compound No. 14, 5,6-dihydro-2,3-dimethoxybenzo[a]-9-(4-benzyloxy)-benzyloxy-13-ethyl-10-methoxybenzo[g]quinolizinium chloride]	> 100 µM	–
CCc1c2[n+](cc3c(OCc4cc(C)ccc4C)c(OC)ccc13)CCc1cc(OC)c(OC)cc1-2 [Compound No. 15, 5,6-dihydro-2,3-dimethoxybenzo[a]-9-(2,5-dimethyl)benzyloxy-13-ethyl-10-methoxybenzo[g]quinolizinium chloride]	> 100 µM	–
CCc1c2[n+](cc3c(OCc4ccccc4C(F)(F)F)c(OC)ccc13)CCc1cc(OC)c(OC)cc1-2 [Compound No. 20, 5,6-dihydro-2,3-dimethoxybenzo[a]-13-ethyl-10-methoxy-9-(2-trifluoromethyl)benzyloxybenzo[g]quinolizinium chloride]	10 to 100 µM	–
CCc1c2[n+](cc3c(OCc4cccc(Oc5ccccc5)c4)c(OC)ccc13)CCc1cc(OC)c(OC)cc1-2 [Compound No. 21, 5,6-dihydro-2,3-dimethoxybenzo[a]-13-ethyl-10-methoxy-9-(3-phenoxy)benzyloxybenzo[g]quinolizinium chloride]	> 100 µM	–
CCc1c2[n+](cc3c(OCc4ccc(OC)cc4)c(OC)ccc13)CCc1cc(OC)c(OC)cc1-2 [Compound No. 22, 5,6-dihydro-2,3-dimethoxybenzo[a]-13-ethyl-10-methoxy-9-(4-methoxy)benzyloxybenzo[g]quinolizinium chloride]	> 100 µM	–
CCc1c2[n+](cc3c(OCc4c(F)cccc4Cl)c(OC)ccc13)CCc1cc(OC)c(OC)cc1-2 [Compound No. 23, 5,6-dihydro-2,3-dimethoxybenzo[a]-9-(2-chloro-6-fluoro)benzyloxy-13-ethyl-10-methoxybenzo[g]quinolizinium chloride]	10 to 100 µM	–
CCc1c2[n+](cc3c(OCc4cccc([N+](=O)[O-])c4C)c(OC)ccc13)CCc1cc(OC)c(OC)cc1-2 [Compound No. 24, 5,6-dihydro-2,3-dimethoxybenzo[a]-13-ethyl-10-methoxy-9-(2-methyl-3-nitro)benzyloxybenzo[g]quinolizinium chloride]	> 100 µM	–
CCc1c2[n+](cc3c(OCc4cc(C)ccc4[N+](=O)[O-])c(OC)ccc13)CCc1cc(OC)c(OC)cc1-2 [Compound No. 25, 5,6-dihydro-2,3-dimethoxybenzo[a]-13-ethyl-10-methoxy-9-(5-methyl-2-nitro)benzyloxybenzo[g]quinolizinium chloride]	> 100 µM	–
C=CCOc1c(OC)ccc2c(CC)c3[n+](cc12)CCc1cc(OC)c(OC)cc1-3 [Compound No. 26, 5,6-dihydro-2,3-dimethoxybenzo[a]-13-ethyl-10-methoxy-9-allyloxybenzo[g]quinolizinium chloride]	> 100 µM	–

The remaining lines, values ahead:

IC50	IC50 (microsomes)	Compound
< 1 µM	–	CCCCCCCCCCCCOc1c(OC)ccc2c(CC)c3[n+](cc12)CCc1cc(OC)c(OC)cc1-3 [Compound No. 1, 5,6-dihydro-2,3-dimethoxybenzo[a]-9-dodecoxy-13-ethyl-10-methoxybenzo[g]quinolizinium chloride]
10 to 100 µM	–	CCc1c2[n+](cc3c(OCc4ccc(F)cc4C(F)(F)F)c(OC)ccc13)CCc1cc(OC)c(OC)cc1-2 [Compound No. 4, 5,6-dihydro-2,3-dimethoxybenzo[a]-13-ethyl-9-[4-fluoro-2-(trifluoromethyl)benzyloxy]-10-methoxybenzo[g]-quinolizinium chloride]
< 1 µM	–	CCc1c2[n+](cc3c(OCc4cc(OC)c(OC)cc4[N+](=O)[O-])c(OC)ccc13)CCc1cc(OC)c(OC)cc1-2 [Compound No. 5, 5,6-dihydro-2,3-dimethoxybenzo[a]-9-(4,5-dimethoxy-2-nitro)benzyloxy-13-ethyl-10-methoxybenzo[g]-quinolizinium chloride]
10 to 100 µM	–	CCc1c2[n+](cc3c(OCc4cc([N+](=O)[O-])ccc4OC)c(OC)ccc13)CCc1cc(OC)c(OC)cc1-2 [Compound No. 7, 5,6-dihydro-2,3-dimethoxybenzo[a]-13-ethyl-10-methoxy-9-(2-methoxy-5-nitro)benzyloxybenzo[g]quinolizinium chloride]
10 to 100 µM	–	CCc1c2[n+](cc3c(OCc4ccc(F)cc4Cl)c(OC)ccc13)CCc1cc(OC)c(OC)cc1-2 [Compound No. 10, 5,6-dihydro-2,3-dimethoxybenzo[a]-9-(2-chloro-4-fluro)benzyloxy-13-ethyl-10-methoxybenzo[g]quinolizinium chloride]
< 1 µM	–	CCc1c2[n+](cc3c(OCc4cccc(C(F)(F)F)c4)c(OC)ccc13)CCc1cc(OC)c(OC)cc1-2 [Compound No. 11, 5,6-dihydro-2,3-dimethoxybenzo[a]-13-ethyl-10-methoxy-9-(3-trifluoromethyl)benzyloxybenzo[g]quinolizinium chloride]
< 1 µM	–	CCc1c2[n+](cc3c(OCc4c(F)c(F)c(C(F)(F)F)c(F)c4F)c(OC)ccc13)CCc1cc(OC)c(OC)cc1-2 [Compound No. 13, 5,6-dihydro-2,3-dimethoxybenzo[a]-13-ethyl-10-methoxy-9-(2,3,5,6-tetrafluoro-4-trifluoromethyl)benzyloxy-benzo[g]quinolizinium chloride]
< 1 µM	–	CCc1c2[n+](cc3c(OCc4ccc(-c5ccccc5)cc4)c(OC)ccc13)CCc1cc(OC)c(OC)cc1-2 [Compound No. 16, 5,6-dihydro-2,3-dimethoxybenzo[a]-13-ethyl-10-methoxy-9-(4-phenyl)benzyloxybenzo[g]quinolizinium chloride]
< 1 µM	–	CCc1c2[n+](cc3c(OCc4ccc(Cl)nc4)c(OC)ccc13)CCc1cc(OC)c(OC)cc1-2 [Compound No. 17, 5,6-dihydro-2,3-dimethoxybenzo[a]-9-(6-chloropyridine-3-yl)methoxy-13-ethyl-10-methoxybenzo[g]quinoli-zinium chloride]
10 to 100 µM	–	CCc1c2[n+](cc3c(OCc4cccc(Cl)c4)c(OC)ccc13)CCc1cc(OC)c(OC)cc1-2 [Compound No. 18, 5,6-dihydro-2,3-dimethoxybenzo[a]-9-(3-chloro)-benzyloxy-13-ethyl-10-methoxybenzo[g]quinolizinium chloride]
10 to 100 µM	–	CCc1c2[n+](cc3c(OCc4ccc(Br)cc4)c(OC)ccc13)CCc1cc(OC)c(OC)cc1-2 [Compound No. 19, 5,6-dihydro-2,3-dimethoxybenzo[a]-9-(4-bromo)benzyloxy-13-ethyl-10-methoxybenzo[g]quinolizinium chloride]
